Results published in patent US12121614B2, “Delayed release composition for peroral administration” (VICORE PHARMA AB, priority 2020, dated 2024).
“And” between values parts separate entries of the source, which are not always exact repeats. Equal values may be shown once. Read-outs that look alike come from different tables or passages of the source.

Tests used:
[1] = Phase I clinical trial, food effect part: pharmacokinetics of C21 fed vs fasted; format: in vivo, human; conditions: for AUC(0-t) / AUC(0-inf) / Cmax / Vd/F / half-life / Tmax: both sexes, human, plasma; for Tmax: read-out: tmax, Median
Description: In addition, the effect of food on the pharmacokinetics (PK) of C21 was investigated in an open label manner in 10 male and female subjects at a single oral dose of 75 mg.
Subjects were to receive two single doses of 75 mg of C21 at least 3 days apart in a randomised fashion either in fasted or in fed state. A Food and Drug Administration (FDA)-recommended high-fat breakfast was used to investigate maximum effects.
In the food effect part of the study, the subjects' ages ranged from 22 to 44 years with a median age of 36.0 years. Most of the subjects were Caucasian (9 (90.0% of) subjects) and male (8 (80.0% of) subjects). The mean (SD) BMI of overall subjects was 23.96 (2.223) kg/m^2.
C21 sodium salt as a pre-frozen oral solution (comprising 2.5 mg/mL C21 sodium salt sodium salt dissolved in an aqueous carbonate buffer) with a composition as shown in Table 1 below.
Plasma concentrations below the lower limit of quantification (LLOQ) were presented as below the lower limit of quantification (BLQ). Plasma concentrations for C21 were summarised by study part, dose cohort and nominal time point.
Pharmacokinetic parameters were calculated by non-compartmental analysis methods from the concentration-time data using Phoenix® WinNonlin® (Version 8.0) or higher following these guidelines: • Actual sampling times relative to dosing rather than nominal times were used in the calculation of all derived pharmacokinetic parameters. • There was no imputation of missing data. • Any subjects with missing concentration data were included in the PK analysis set provided that at least Cmax and AUC(0-t) could be reliably calculated.
All BLQ values pre-dose and in the absorption phase prior to the first quantifiable concentration were substituted by zeros. Single BLQs that fell between two evaluable concentrations were substituted by missing, before the calculation of the PK variables. Consecutive BLQs that fell between evaluable concentrations were substituted by zero, before the calculation of the PK variables. Terminal BLQ values were disregarded.
Bioequivalence of PK parameters from the open label food effect arm were determined by constructing 90% confidence intervals around the estimated difference between the Test and Reference treatments using a mixed effects model based on natural log transformed data. The mixed effects model was implemented using SAS Proc Mixed, with REML estimation method and Kenward-Roger degrees of freedom algorithm.
Natural logarithm transformed AUC(0-inf) (if data permitted), AUC(0-24) and Cmax were analysed using a mixed effects model with sequence, period and treatment as fixed effects and subject within sequence as a random effect. Estimates of the mean differences (Test-Reference) and corresponding 90% confidence intervals were obtained from the model. The estimated mean differences and 90% confidence intervals for the differences were exponentiated to provide estimates of the ratio of geometric means (Test/Reference) and 90% confidence intervals for the ratios. C21 in the fasted state is the Reference treatment and C21 in the fed state is the Test treatment.
The comparisons assessing the food effect (bioequivalence) were used to assess the effect of food on the rate and extent of absorption of C21 administered under fasted and fed conditions with estimates of the mean differences as well as corresponding 90% confidence intervals being presented.
The model is a mixed analysis of variance (ANOVA) model with a fixed term for sequence, period, treatment, and a random effect for subject within sequence.

[2] = Phase I clinical trial: safety and tolerability of C21 in healthy subjects; format: in vivo, human; conditions: healthy male and female subjects, gradual escalation of dose
Description: A Phase I clinical trial was conducted to evaluate the safety, tolerability, and pharmacokinetics of C21 in healthy male and female subjects. The study design allowed a gradual escalation of dose with intensive clinical data and PK monitoring to ensure the safety and wellbeing of subjects.
The study was designed and conducted in accordance with the CRO's standard operating procedures (SOPs), which comply with the ethical principles laid down in the International Council for Harmonisation (ICH) Good Clinical Practice (GCP) guidance as required by the major regulatory authorities, and in accordance with the Declaration of Helsinki as amended by the 48th General Assembly in October 1996.

[3] = 75 mg, fed (Test) vs fasted (Reference)
[4] = 75 mg, higher for the fed treatment
[5] = single oral dose 75 mg, Fasted, N = 9
[6] = single oral dose 75 mg, Fed, N = 10

## CCCCOC(=O)NS(=O)(=O)c1sc(CC(C)C)cc1-c1ccc(Cn2ccnc2)cc1 [C21, N-butyloxycarbonyl-3-(4-imidazol-1-ylmethylphenyl)-5-iso-butylthiophene-2-sulfonamide]
[1]; [3]
  AUC(0-24), Geometric Mean Ratio (Fed:Fasted): 0.45 and 0.449
  AUC(0-inf), Geometric Mean Ratio (Fed:Fasted): 0.45 and 0.449
  Cmax, Geometric Mean Ratio (Fed:Fasted): 0.16 and 0.155
[1]; [4]
  CL/F, fed treatment compared to fasted treatment: approximately 2 fold
  VZ/F, fed treatment compared to fasted treatment: 3 fold
[1]; Phase I clinical trial in healthy subjects
  food effect on pharmacokinetics: a pronounced food effect was observed
[1]; oral, 75 mg, Fasted (N = 9), mixed ANOVA model, read-out: AUC(0-24), Geometric Mean (95% CI), mixed effects model
  AUC(0-t): 1710 ng·h/mL
[1]; oral, 75 mg, Fasted (N = 9), mixed ANOVA model, read-out: AUC(0-inf), Geometric Mean (95% CI), mixed effects model
  AUC(0-inf): 1710 ng·h/mL
[1]; oral, 75 mg, Fasted (N = 9), mixed ANOVA model, read-out: Cmax, Geometric Mean (95% CI), mixed effects model
  Cmax: 1700 ng/mL
[1]; oral, 75 mg, Fed (N = 10), mixed ANOVA model, read-out: AUC(0-24), Geometric Mean (95% CI), mixed effects model
  AUC(0-t): 768 ng·h/mL
[1]; oral, 75 mg, Fed (N = 10), mixed ANOVA model, read-out: AUC(0-inf), Geometric Mean (95% CI), mixed effects model
  AUC(0-inf): 769 ng·h/mL
[1]; oral, 75 mg, Fed (N = 10), mixed ANOVA model, read-out: Cmax, Geometric Mean (95% CI), mixed effects model
  Cmax: 263 ng/mL
[1]; po, 75 mg, single oral dose 75 mg, Fasted, N = 9, plasma, read-out: Cmax, Arithmetic Mean
  Cmax: 1810 ng/mL
[1]; po, 75 mg, single oral dose 75 mg, Fasted, N = 9, plasma, read-out: Cmax, Geometric Mean
  Cmax: 1710 ng/mL
[1]; po, 75 mg, single oral dose 75 mg, Fasted, N = 9, read-out: AUC(0-6), Arithmetic Mean
  AUC(0-t): 1850 ng·h/mL
[1]; po, 75 mg, single oral dose 75 mg, Fasted, N = 9, read-out: AUC(0-6), Geometric Mean
  AUC(0-t): 1760 ng·h/mL
[1]; po, 75 mg, single oral dose 75 mg, Fasted, N = 9, read-out: AUC(0-12), Arithmetic Mean
  AUC(0-t): 1860 ng·h/mL
[1]; po, 75 mg, single oral dose 75 mg, Fasted, N = 9, read-out: AUC(0-12), Geometric Mean
  AUC(0-t): 1770 ng·h/mL
[1]; po, 75 mg, single oral dose 75 mg, Fasted, N = 9, read-out: AUC(0-24), Arithmetic Mean
  AUC(0-t): 1860 ng·h/mL
[1]; po, 75 mg, single oral dose 75 mg, Fasted, N = 9, read-out: AUC(0-inf), Arithmetic Mean
  AUC(0-inf): 1860 ng·h/mL
[1]; po, 75 mg, single oral dose 75 mg, Fasted, N = 9, read-out: AUC(0-inf), Geometric Mean
  AUC(0-inf): 1770 ng·h/mL
[1]; po, 75 mg, single oral dose 75 mg, Fasted, N = 9, read-out: AUC(0-t), Arithmetic Mean
  AUC(0-t): 1840 ng·h/mL
[1]; po, 75 mg, single oral dose 75 mg, Fasted, N = 9, read-out: AUC(0-t), Geometric Mean
  AUC(0-t): 1750 ng·h/mL
[1]; po, 75 mg, single oral dose 75 mg, Fasted, N = 9, read-out: Vz/F, Arithmetic Mean
  Vd/F: 36.6 L
[1]; po, 75 mg, single oral dose 75 mg, Fasted, N = 9, read-out: Vz/F, Geometric Mean
  Vd/F: 34.8 L
[1]; po, 75 mg, single oral dose 75 mg, Fasted, N = 9, read-out: t1/2, Arithmetic Mean
  half-life: < 60 min
[1]; po, 75 mg, single oral dose 75 mg, Fasted, N = 9, read-out: t1/2, Geometric Mean (converted)
  half-life: 34.1 min
[1]; po, 75 mg, single oral dose 75 mg, Fasted, N = 9
  Tmax: 40.2 min
[1]; po, 75 mg, single oral dose 75 mg, Fed (high-fat breakfast), N = 10, plasma, read-out: Cmax, Arithmetic Mean
  Cmax: 269 ng/mL
[1]; po, 75 mg, single oral dose 75 mg, Fed (high-fat breakfast), N = 10, plasma, read-out: Cmax, Geometric Mean
  Cmax: 263 ng/mL
[1]; po, 75 mg, single oral dose 75 mg, Fed, N = 10, read-out: AUC(0-6), Arithmetic Mean
  AUC(0-t): 747 ng·h/mL
[1]; po, 75 mg, single oral dose 75 mg, Fed, N = 10, read-out: AUC(0-6), Geometric Mean
  AUC(0-t): 732 ng·h/mL
[1]; po, 75 mg, single oral dose 75 mg, Fed, N = 10, read-out: AUC(0-12), Arithmetic Mean
  AUC(0-t): 790 ng·h/mL
[1]; po, 75 mg, single oral dose 75 mg, Fed, N = 10, read-out: AUC(0-12), Geometric Mean
  AUC(0-t): 767 ng·h/mL
[1]; po, 75 mg, single oral dose 75 mg, Fed, N = 10, read-out: AUC(0-24), Arithmetic Mean
  AUC(0-t): 792 ng·h/mL
[1]; po, 75 mg, single oral dose 75 mg, Fed, N = 10, read-out: AUC(0-24), Geometric Mean
  AUC(0-t): 768 ng·h/mL
[1]; po, 75 mg, single oral dose 75 mg, Fed, N = 10, read-out: AUC(0-inf), Arithmetic Mean
  AUC(0-inf): 792 ng·h/mL
[1]; po, 75 mg, single oral dose 75 mg, Fed, N = 10, read-out: AUC(0-inf), Geometric Mean
  AUC(0-inf): 768 ng·h/mL
[1]; po, 75 mg, single oral dose 75 mg, Fed, N = 10, read-out: AUC(0-t), Arithmetic Mean
  AUC(0-t): 767 ng·h/mL
[1]; po, 75 mg, single oral dose 75 mg, Fed, N = 10, read-out: AUC(0-t), Geometric Mean
  AUC(0-t): 742 ng·h/mL
[1]; po, 75 mg, single oral dose 75 mg, Fed, N = 10, read-out: Vz/F, Arithmetic Mean
  Vd/F: 120 L
[1]; po, 75 mg, single oral dose 75 mg, Fed, N = 10, read-out: Vz/F, Geometric Mean
  Vd/F: 118 L
[1]; po, 75 mg, single oral dose 75 mg, Fed, N = 10, read-out: t1/2, Arithmetic Mean
  half-life: < 60 min
[1]; po, 75 mg, single oral dose 75 mg, Fed, N = 10, read-out: t1/2, Geometric Mean (converted)
  half-life: 50.1 min
[1]; po, 75 mg, single oral dose 75 mg, Fed, N = 10
  Tmax: 75.6 min
[1]; [5]
  % AUCex, Arithmetic Mean: 0.89%
  CL/F, Arithmetic Mean: 44.52 L/h
  CL/F, Geometric Mean: 42.44 L/h
  Cav, Arithmetic Mean: 77.4 ng/mL
  Cav, Geometric Mean: 73.6 ng/mL
[1]; single oral dose 75 mg, Fed (high-fat breakfast), N = 10, plasma
  Cmax, Geometric Mean: 263.2 ng/mL
[1]; [6]
  % AUCex, Arithmetic Mean: 3.5%
  AUC(0-12), Geometric Mean: 767.4 ng·h/mL
  CL/F, Arithmetic Mean: 100.3 L/h
  CL/F, Geometric Mean: 97.59 L/h
  Cav, Arithmetic Mean: 33.0 ng/mL
  Cav, Geometric Mean: 32.0 ng/mL
[2]
  safety and tolerability: safe and generally well tolerated
  serious adverse events: No serious adverse events
